Patent publication US7763626B2, “Compositions and method for enhancing the therapeutic activity of opiods in treatment of pain” (Trustees of Dartmouth College, priority 2004, dated 2010)

Key:
GFAP mRNA = assay: Real-time PCR of GFAP mRNA at L5 lumbar spinal cord; assay type: in vivo, rat
Protocol: (§1) Total RNA was treated with DNase I (Ambion, Austin, Tex.) to remove DNA contamination before cDNA synthesis. The reverse transcription (RT) was carried out in a 100 μl total reaction volume containing RT buffer, dNTPs, multiscribe reverse transcriptase, RNase-free water and 10 μg of DNase-treated total RNA. The RT reaction was carried out at 25° C. for 10 minutes, 37° C. for 120 minutes, and 95° C. for 5 minutes. Real-time PCR analysis was performed using gene-specific primers and probes that were designed and blasted against GENBANK to confirm their species and gene specificity. […] The real-time PCR reactions were carried out using Platinum Taq DNA polymerase, 20 mM Tris HCl (pH 8.4), 50 mM KCl, 3 mM MgCl2, 200 μM dGTP, dCTP, and dATP, 400 μM of dUTP and 1 U uracyl DNA glycosylase (UDG), 900 nM forward and reverse primers, 300 nM TaqMan probe, and 10-fold dilution of cDNA (50 ng) from the RT step. Primers and probes for glyceraldehyde-3-phosphate (GADPH), GFAP and Mac-1 were obtained form Applied Biosystems (LaJolla, Calif.). The relative standard curves generated by plotting the threshold value versus the log of the amount of total cDNA added to the reaction (1-10000 pg) were used to compare the relative amount of target genes from control and chronic morphine-treated animals.

TNF-α mRNA = assay: RNase protection assay, cytokine mRNA at L5 lumbar spinal cord; conditions: propentofylline 10 micrograms intrathecally for 5 days during induction of morphine tolerance
Protocol: (§5) After behavioral testing for reactions to the combined treatment, rats were sacrificed and decapitated. An 18-gauge needle was inserted into the caudal end of the vertebral column and the spinal cord was expelled with ice-cold phosphate-buffered saline. The spinal cord was frozen immediately on dry ice and stored at −80° C. until homogenization. The L5 lumbar spinal cord was isolated from the intact frozen cord at the time of mRNA and protein quantification. Total RNA was isolated from the L5 spinal cord by the TRIzol extraction method (Invitrogen Corporation, Carlsbad, Calif).
Assessment of the temporal cytokine mRNA expression in the L5 lumber spinal cord was performed using a Ribonuclease Protection Assay technique. A Multiprobe RPAse kit was used (Pharmingen, San Diego, Calif.). […] Quantitative image analysis was employed to compare mRNA levels based on band intensities for each cytokine. The intensity of each band was measured using image analysis software and assigned an arbitrary unit based on the measured intensity levels. The value for the normalized quantity for each band was obtained by dividing by the L32 house-keeping gene control. Individual mRNA concentration was calculated as the ratio of the expression compared with saline-treated animals in which normal values were weighted as 1.

GLAST protein = assay: Western blot analysis of ipsilateral lumbar spinal cord; assay type: in vivo, rat; conditions: day 4
Protocol: (§2) Experiments were performed to determine how propentofylline-induced suppression of glial activation contribute to reduced behavioral hypersensitivity after nerve injury. In a preventative paradigm, 10 μg of propentofylline (Sigma) to male Sprague-Dawley rats in 40 μl of sterile saline, or saline vehicle alone was administered intrathecally (i.t.) by lumbar puncture at the L4/5 level under brief halothane anesthesia (n=6-8/group). Treatment began one hour prior to L5 spinal nerve transection and continued daily in the evening until day 4 or 12 post-transection. Rats received either an L5 spinal nerve transection or sham surgery on day 0. The development of mechanical allodynia was monitored as described above in the morning at approximately 15 hours post-propentofylline or saline injection. Rats were euthanized on day 4 or 12 post-transection and tissue was further processed by real time RT-PCR, Western blot, or immunohistochemistry for determination of levels and rate of synthesis of the glutamate transporters GLT-1 and GLAST.
(§3) Tissue was collected from 4-5 rats/group on postoperative days 4 or 12. […]
(§4) Protein obtained from L5 lumbar spinal cord was quantified using the Lowry method (DC assay, Bio-Rad, Richmond, Calif.). […]

GLT-1 protein = assay: as above; assay type: in vivo, rat; conditions: day 12
Protocol: as §2, §3, §4

IL-1β mRNA = assay: RNase protection assay, cytokine mRNA at L5 lumbar spinal cord; assay type: in vivo, rat; conditions: propentofylline 10 micrograms intrathecally for 5 days during induction of morphine tolerance
Protocol: as §5
Assessment of the temporal cytokine mRNA expression in the L5 lumber spinal cord was performed using a Ribonuclease Protection Assay technique. A Multiprobe RPAse kit was used (Pharmingen, San Diego, Calif.). Total RNA (15 μg) was hybridized to ^32P-labeled antisense RNA probes transcribed using the rat cytokine-1 (rCK-1) multiprobe template set resulting in double-stranded target RNA. After Rnase digestion, protected RNA and probe were resolved on a denaturing polyacrylamide gel and visualized by overnight autoradiography. Quantitative image analysis was employed to compare mRNA levels based on band intensities for each cytokine. The intensity of each band was measured using image analysis software and assigned an arbitrary unit based on the measured intensity levels. The value for the normalized quantity for each band was obtained by dividing by the L32 house-keeping gene control. Individual mRNA concentration was calculated as the ratio of the expression compared with saline-treated animals in which normal values were weighted as 1.

Mac-1 mRNA = assay: Real-time PCR of Mac-1 mRNA at L5 lumbar spinal cord; assay type: in vivo, rat
Protocol: as §1

Male Sprague-Dawley rats = assay: L5 spinal nerve transection model, mechanical allodynia; assay type: in vivo, rat
Protocol: as §2, with “Rats were euthanized on day 4 or 12 post-transection and tissue was further processed by real time RT-PCR, Western blot, or immunohistochemistry for determination of levels and rate of synthesis of the glutamate transporters GLT-1 and GLAST.” left out
Mechanical sensitivity was measured as the frequency of foot withdrawals elicited by a defined mechanical stimulus. […]
In blinded testing, rats were subjected to sequential series of 10 tactile stimulations to the dorsal surface of the ipsilateral hindpaw using […] von Frey filaments (Stoelting Co., WoodDale, Ill.) sequentially. The number of foot withdrawals to this normally non-noxious stimulus determined mechanical allodynia. Mechanical sensitivity was assessed by recording the total number of responses elicited during three successive trials separated by at least 10 minutes. […]

[1] = compared to saline-treated controls, morphine 10 mg/kg twice daily 5 days, or propentofylline 10 micrograms intrathecally 5 days in saline-treated rats
[2] = propentofylline during the induction phase of morphine tolerance

Compound: CCCn1cnc2c1c(=O)n(CCCCC(C)=O)c(=O)n2C [propentofylline]
- GFAP mRNA levels at the L5 lumbar spinal cord (GFAP mRNA; [1]): no effect
- chronic morphine-induced upregulation of GFAP (GFAP mRNA; [2]): significantly attenuated
- morphine-induced mRNA upregulation for TNF-α (TNF-α mRNA): significantly attenuated
- GLAST protein compared with saline-treated injured rats (GLAST protein): significant decrease
- GLT-1 protein compared with L5 spinal nerve transection alone (GLT-1 protein): significantly elevated
- morphine-induced mRNA upregulation for IL-1β (IL-1β mRNA): significantly attenuated
- Mac-1 mRNA levels at the L5 lumbar spinal cord (Mac-1 mRNA; [1]): no effect
- chronic morphine-induced upregulation of Mac-1 (Mac-1 mRNA; [2]): significantly attenuated
- development of mechanical allodynia after L5 spinal nerve transection (Male Sprague-Dawley rats; 10 μg i.t. daily from one hour prior to transection, 12 g Von Frey filament, all time points, vs L5 saline rats): robustly inhibited
- mechanical allodynia after L5 spinal nerve transection compared with normal group (Male Sprague-Dawley rats; 10 μg i.t. daily, day 5, 7, 9 and 12): no longer discernable from the normal group
